Experimental data as given in US5208344A, “Naphthalenepropionic acid derivatives as anti-inflammatory/antiallergic agents” (American Home Products Corporation, priority 1991, dated 1993).
Counter-ions that a name gives are not always drawn.

Legend:
5-lipoxygenase = biological target: T1, 5-lipoxygenase (Rattus norvegicus, UniProt P12527); experiment: inhibition of 5-HETE synthesis by rat glycogen elicited polymorphonuclear leukocytes; assay type: cell-based; conditions: 10 μM, rat PMN, negative = potentiation of 5-HETE synthesis
T1 construct: Peritoneal PMN are obtained from female Wistar rats (150-250 g); endogenous in cells; host or cells: rat glycogen-elicited peritoneal polymorphonuclear leukocytes, intact
T1 sequence (P12527 1-673): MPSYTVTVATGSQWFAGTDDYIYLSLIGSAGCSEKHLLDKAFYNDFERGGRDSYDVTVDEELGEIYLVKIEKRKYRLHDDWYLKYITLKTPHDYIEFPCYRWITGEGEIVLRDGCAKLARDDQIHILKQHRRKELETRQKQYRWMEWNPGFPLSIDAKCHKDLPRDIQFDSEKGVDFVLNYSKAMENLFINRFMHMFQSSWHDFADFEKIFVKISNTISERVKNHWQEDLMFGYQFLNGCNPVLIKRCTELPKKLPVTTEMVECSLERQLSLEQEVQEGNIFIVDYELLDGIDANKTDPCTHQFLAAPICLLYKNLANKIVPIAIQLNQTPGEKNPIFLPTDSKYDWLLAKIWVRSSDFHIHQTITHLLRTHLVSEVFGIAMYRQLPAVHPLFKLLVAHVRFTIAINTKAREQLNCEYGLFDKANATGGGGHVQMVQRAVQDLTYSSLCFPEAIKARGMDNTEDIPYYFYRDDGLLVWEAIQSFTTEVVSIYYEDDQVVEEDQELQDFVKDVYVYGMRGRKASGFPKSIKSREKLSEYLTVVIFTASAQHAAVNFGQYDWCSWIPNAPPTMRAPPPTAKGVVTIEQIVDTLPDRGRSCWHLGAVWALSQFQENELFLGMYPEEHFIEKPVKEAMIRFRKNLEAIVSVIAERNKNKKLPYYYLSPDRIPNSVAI
In short: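 Peritoneal PMN from female Wistar rats given i.p. glycogen 24 h earlier were preincubated with compound for 10 min at 37° C (2×10^7 cells/ml, 10 mM L-cysteine). They were then stimulated 10 min with 10 μM A23187 plus 0.5 μM [14C]arachidonic acid. 5-HETE was separated by TLC and quantified by scintillation.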

[1] = tested on: ovalbumin-induced bronchoconstriction; experiment: inhibition of antigen (ovalbumin)-induced bronchoconstriction in anesthetized guinea pigs; assay type: in vivo; conditions: orally administered 4 hours before induction; guinea pig; 240 min
Procedure: The compounds of the invention are tested to measure their in vivo ability to inhibit the bronchoconstriction induced in anesthetized guinea pigs by exogenously administered antigen.
Male Hartley guinea pigs (400-700 gm) are sensitized three weeks prior to antigen (ovalbumin-OA) challenge as follows: each guinea pig is given two intramuscular injections--0.35 ml of Grade V OA, 50 mg/ml, into each hindlimb.
Guinea pigs, fasted overnight but allowed water adlibitum, are anesthetized with 1.2 g/kg of urethane (intraperitoneal). Supplemental does of […] of urethane are administered intraperitoneally as needed. One carotid artery and one jugular vein are cannulated to allow for the monitoring of blood pressure and the administration of drugs, respectively. A duodenal cannula is inserted for intraduodenal dosing studies. The trachea of each animal is cannulated and connected to a Harvard respirator. […] Respiratory overflow pressure is measured from a side arm off the tracheal cannula which is connected via a Gould or Beckman pressure transducer to a suitable strip chart recorder. […]
Test compounds are administered intravenously, perorally, or intraduodenally at appropriate times prior to OA challenge. […] Control experiments are used to determine the effects of solvents on the measured parameters, and test data is corrected for any significant solvent effects.
Bronchoconstriction is assessed as increases in respiratory overflow pressure (cm H2 O). Changes in blood pressure (mm Hg) are also recorded.
Test compound-induced changes in the respiratory overflow pressure are assessed as percent changes from control experiments. […] The net change in overflow pressure is measured 5 minutes after antigen challenge and is calculated as follows. […] The percent change value for the drug treated group versus the control group is calculated as follows: […]

SMILES | % Inhibition of 5-LO (as 5-HETE) (5-lipoxygenase) | ED50 (ovalbumin-induced bronchoconstriction) [1] | inhibition at 10 µM (5-lipoxygenase; read-out: % Inhibition of 5-LO (as 5-HETE))
C[C@H](C(=O)O)c1ccc2cc(OCc3ccc4ccccc4n3)ccc2c1 [Example 17, S-(α)-α-Methyl-6-(2-quinolinylmethoxy)-2-naphthaleneacetic acid, tromethanime salt] | 85% | 7 mg/kg | –
C[C@H](C(=O)N(C)O)c1ccc2cc(OCc3ccc4ccccc4n3)ccc2c1 [Example 24, (S)-N-Hydroxy-α-N-dimethyl-6-(2-quinolinylmethoxy)-2-naphthaleneacetamide] | – | – | 100%
